The test system of this experiment is HIV-1 (H9/IIIB strain) virus. The experiment can be described thus: microbe, parasite or virus in culture. The class given is cell-based. To be noted: MT4-GFP cells infected with HIV-1 H9/IIIB, inhibition of reproductive ratio.
Where [1] appears, read: 0% NHS condition (RPMI 1640), read-out: Viking, IC50 (0% NHS).
[2] abbreviates: 100% normal human serum (NHS) condition, read-out: Viking, IC50 (100% NHS).
[3] abbreviates: Human immunodeficiency virus 1, IIIB, 0% NHS condition (RPMI 1640), read-out: Viking, IC50 (0% NHS).
The mark [4] stands for this setting: 100% normal human serum (NHS) condition, 2,2,2-trifluoroacetate, read-out: Viking, IC50 (100% NHS).

Where two headings read alike, the source gives them in different places.

Take `O=C(NCc1c(F)ccc(Cl)c1F)c1cn2c(c(O)c1=O)C(=O)N1CCCCCCN2C1` [Example 12B]: the IC50 is, setting by setting: under setting [1], 3.21 nM; under setting [2], 428 nM.

With `COC1CCN2CN(CC1)n1cc(C(=O)NCc3ccc(F)c(Cl)c3F)c(=O)c(O)c1C2=O` (single isomer, unassigned) [Example 21B], the IC50 was determined as 0.9 nM under setting [1] and 207 nM under setting [2].

Regarding `CN1CCN2CN(CC1)n1cc(C(=O)NCc3cccc(Cl)c3F)c(=O)c(O)c1C2=O` [Example 24A], the IC50 by setting is: under setting [1], 5.1 nM; under setting [2], 665 nM.

As to `COC1CCN2CN(CC1)n1cc(C(=O)NCc3c(F)cccc3F)c(=O)c(O)c1C2=O` (single isomer, unassigned) [Example 22A], the IC50 runs as follows: under setting [1], 8.2 nM; under setting [2], 333 nM.

For the compound `O=C(NCc1cccc(Cl)c1F)c1cn2c(c(O)c1=O)C(=O)N1CCOCCN2C1` [Example 13B], the IC50 is, setting by setting: under setting [1], 2.19 nM; under setting [2], 146 nM.

`O=C(NCc1c(F)ccc(Cl)c1F)c1cn2c(c(O)c1=O)C(=O)N1CCCCCCN2C1` [Example 12A]: the IC50 stood at 14.3 nM under setting [1] and 10700 nM under setting [2].

For the compound `O=C(NCc1c(F)cc(F)cc1F)c1cn2c(c(O)c1=O)C(=O)N1CCOCCN2C1` [Example 14B], the half-inhibitory concentration (IC50) was determined as 1.66 nM under setting [1] and 157 nM under setting [2].

For the compound `O=C(NCc1ccc(F)cc1F)c1cn2c(c(O)c1=O)C(=O)N1CCCCCCN2C1` (single isomer, unassigned) [Example 3A, N-(2,4-difluorobenzyl)-10-hydroxy-9,11-dioxo-2,3,4,5,6,7,9,11-octahydro-1,8-methanopyrido[1,2-b][1,2,5]triazacycloundecine-12-carboxamide], the half-inhibitory concentration (IC50) runs as follows: under setting [2], 589 nM; under setting [3], 2.66 nM.

On to `O=C(NCc1c(F)cc(F)cc1F)c1cn2c(c(O)c1=O)C(=O)N1CCC(O)CCN2C1` (single isomer, unassigned) [Example 17B], for which the IC50 was 7.6 nM under setting [1] and 275 nM under setting [2].

As to `CN1CCN2CN(CC1)n1cc(C(=O)NCc3c(F)cc(F)cc3F)c(=O)c(O)c1C2=O` (single isomer, unassigned) [Example 6A, 9-hydroxy-4-methyl-8,10-dioxo-N-(2,4,6-trifluorobenzyl)-3,4,5,6,8,10-hexahydro-2H-1,7-methanopyrido[1,2-b][1,2,5,8]tetrazecine-11-carboxamide 2,2,2-trifluoroacetate], the half-inhibitory concentration (IC50) under setting [4] is 169 nM and the IC50 under setting [3] amounted to 4.64 nM.

As for `O=C(NCc1c(F)cc(F)cc1F)c1cn2c(c(O)c1=O)C(=O)N1CCC(O)CCN2C1` (single isomer, unassigned) [Example 17C], the IC50 is, setting by setting: under setting [1], 184 nM; under setting [2], 5920 nM.

As to `O=C(NCc1c(F)ccc(Cl)c1F)c1cn2c(c(O)c1=O)C(=O)N1CCOCCN2C1` [Example 16A], the IC50 under setting [1] was found to be 2.7 nM and the IC50 under setting [2] worked out at 12300 nM.

On to `CN1CCN2CN(CC1)n1cc(C(=O)NCc3c(F)cc(F)cc3F)c(=O)c(O)c1C2=O` (single isomer, unassigned) [Example 6B, 9-hydroxy-4-methyl-8,10-dioxo-N-(2,4,6-trifluorobenzyl)-3,4,5,6,8,10-hexahydro-2H-1,7-methanopyrido[1,2-b][1,2,5,8]tetrazecine-11-carboxamide 2,2,2-trifluoroacetate], for which the IC50 reads like this: (0% NHS condition (RPMI 1640), 2,2,2-trifluoroacetate, read-out: Viking, IC50 (0% NHS)) 2.4 nM; under setting [4], 80.2 nM.

Turning to `COC1CCN2CN(CC1)n1cc(C(=O)NCc3cccc(Cl)c3F)c(=O)c(O)c1C2=O` (single isomer, unassigned) [Example 18A], the 50% inhibitory concentration (IC50) under setting [1] turned out to be 3.1 nM and the IC50 under setting [2] was determined as 279 nM.

As for `COC1CCN2CN(CC1)n1cc(C(=O)NCc3c(F)cc(F)cc3F)c(=O)c(O)c1C2=O` (single isomer, unassigned) [Example 5D, 9-hydroxy-4-methoxy-8,10-dioxo-N-(2,4,6-trifluorobenzyl)-3,4,5,6,8,10-hexahydro-2H-1,7-methanopyrido[1,2-b][1,2,5]triazecine-11-carboxamide], the IC50 worked out at 5.32 nM under setting [1] and 544 nM under setting [2].

`COC1CCN2CN(CC1)n1cc(C(=O)NCc3c(F)cccc3F)c(=O)c(O)c1C2=O` (single isomer, unassigned) [Example 22D]: the IC50 is, setting by setting: under setting [1], 1.4 nM; under setting [2], 311 nM.

Turning to `O=C(NCc1ccc(F)cc1F)c1cn2c(c(O)c1=O)C(=O)N1CCCCN2C1` [Example 2B], the 50% inhibitory concentration (IC50) is, setting by setting: under setting [1], 1.53 nM; under setting [2], 234 nM.

For the compound `O=C(NCc1c(F)cc(F)cc1F)c1cn2c(c(O)c1=O)C(=O)N1CCC(F)(F)CCN2C1` (single isomer, unassigned) [Example 7A, 4,4-difluoro-9-hydroxy-8,10-dioxo-N-(2,4,6-trifluorobenzyl)-3,4,5,6,8,10-hexahydro-2H-1,7-methanopyrido[1,2-b][1,2,5]triazecine-11-carboxamide], the IC50 under setting [1] was determined as 6.1 nM and the IC50 under setting [2] was 4460 nM.

For `O=C(NCc1c(F)cc(F)cc1F)c1cn2c(c(O)c1=O)C(=O)N1CCCCCN2C1` (single isomer, unassigned) [Example 1A, 9-hydroxy-8,10-dioxo-N-(2,4,6-trifluorobenzyl)-3,4,5,6,8,10-hexahydro-2H-1,7-methanopyrido[1,2-b][1,2,5]triazecine-11-carboxamide], the IC50 is 2560 nM under setting [2] and 1.98 nM under setting [3].

Take `O=C(NCc1ccc(F)c(Cl)c1F)c1cn2c(c(O)c1=O)C(=O)N1CCOCCN2C1` [Example 15A]: the IC50 runs as follows: under setting [1], 3.7 nM; under setting [2], 10700 nM.

As for `O=C(NCc1ccc(F)cc1F)c1cn2c(c(O)c1=O)C(=O)N1CCCCCN2C1` [Example 8A], the IC50 came to 1.03 nM under setting [1] and 1570 nM under setting [2].

As to `O=C(NCc1ccc(F)c(Cl)c1F)c1cn2c(c(O)c1=O)C(=O)N1CCOCCN2C1` [Example 15B], the IC50 under setting [1] was found to be 1.61 nM and the IC50 under setting [2] came out at 224 nM.

For `COC1CCN2CN(CC1)n1cc(C(=O)NCc3c(F)ccc(Cl)c3F)c(=O)c(O)c1C2=O` (single isomer, unassigned) [Example 19B], the IC50 by setting is: under setting [1], 5.3 nM; under setting [2], 1880 nM.

For the compound `O=C(NCc1ccc(F)cc1F)c1cn2c(c(O)c1=O)C(=O)N1CCOCCN2C1` (single isomer, unassigned) [Example 4B, N-(2,4-difluorobenzyl)-9-hydroxy-8,10-dioxo-2,3,5,6,8,10-hexahydro-1,7-methanopyrido[1,2-e][1,4,5,8]oxatriazecine-11-carboxamide], the IC50 is, setting by setting: under setting [2], 197 nM; under setting [3], 1.78 nM.

Regarding `O=C(NCc1c(F)ccc(Cl)c1F)c1cn2c(c(O)c1=O)C(=O)N1CCOCCN2C1` [Example 16B], the IC50 is, setting by setting: under setting [1], 1.2 nM; under setting [2], 247 nM.

Turning to `COC1CCN2CN(CC1)n1cc(C(=O)NCc3ccc(F)c(Cl)c3F)c(=O)c(O)c1C2=O` (single isomer, unassigned) [Example 21C], the IC50 was 1.7 nM under setting [1] and 311 nM under setting [2].

`O=C(NCc1c(F)cc(F)cc1F)c1cn2c(c(O)c1=O)C(=O)N1CCOCCN2C1` [Example 14A]: the IC50 runs as follows: under setting [1], 5.4 nM; under setting [2], 4210 nM.

Regarding `COC1CCN2CN(CC1)n1cc(C(=O)NCc3c(F)ccc(Cl)c3F)c(=O)c(O)c1C2=O` (single isomer, unassigned) [Example 19D], the IC50 under setting [1] came out at 1.5 nM and the IC50 under setting [2] was 300 nM.

As for `COC1CCN2CN(CC1)n1cc(C(=O)NCc3ccc(F)cc3F)c(=O)c(O)c1C2=O` (single isomer, unassigned) [Example 20D], the 50% inhibitory concentration (IC50) worked out at 2.1 nM under setting [1] and 212 nM under setting [2].

In the case of `COC1CCN2CN(CC1)n1cc(C(=O)NCc3cccc(F)c3F)c(=O)c(O)c1C2=O` (single isomer, unassigned) [Example 23C], the IC50 reads like this: under setting [1], 4.3 nM; under setting [2], 83 nM.

Consider `O=C(NCc1c(F)cc(F)cc1F)c1cn2c(c(O)c1=O)C(=O)N1CCC(F)(F)CCN2C1` (single isomer, unassigned) [Example 7B, 4,4-difluoro-9-hydroxy-8,10-dioxo-N-(2,4,6-trifluorobenzyl)-3,4,5,6,8,10-hexahydro-2H-1,7-methanopyrido[1,2-b][1,2,5]triazecine-11-carboxamide], for which the IC50 under setting [1] worked out at 2.16 nM and the IC50 under setting [2] turned out to be 73.9 nM.

Turning to `CN1CCN2CN(CC1)n1cc(C(=O)NCc3c(F)ccc(Cl)c3F)c(=O)c(O)c1C2=O` [Example 25A], the IC50 by setting is: under setting [1], 4.5 nM; under setting [2], 1000 nM.

As for `O=C(NCc1ccc(F)cc1F)c1cn2c(c(O)c1=O)C(=O)N1CCCCCN2C1` [Example 8B], the IC50 is 0.86 nM under setting [1] and 122 nM under setting [2].

Regarding `O=C(NCc1ccc(F)cc1F)c1cn2c(c(O)c1=O)C(=O)N1CCC(F)(F)CCN2C1` [Example 26B], the IC50 reads like this: under setting [1], 3.2 nM; under setting [2], 91 nM.

Turning to `COC1CCN2CN(CC1)n1cc(C(=O)NCc3cccc(Cl)c3F)c(=O)c(O)c1C2=O` (single isomer, unassigned) [Example 18D], the IC50 runs as follows: under setting [1], 1.5 nM; under setting [2], 230 nM.

On to `O=C(NCc1ccc(F)cc1F)c1cn2c(c(O)c1=O)C(=O)N1CCC(F)(F)CCN2C1` [Example 26A], for which the IC50 amounted to 6.6 nM under setting [1] and 869 nM under setting [2].

Take `COC1CCN2CN(CC1)n1cc(C(=O)NCc3c(F)ccc(Cl)c3F)c(=O)c(O)c1C2=O` (single isomer, unassigned) [Example 19C]: the IC50 under setting [1] is 3.5 nM and the IC50 under setting [2] is 245 nM.

In the case of `O=C(NCc1cccc(Cl)c1F)c1cn2c(c(O)c1=O)C(=O)N1CCCCCN2C1` [Example 9B], the IC50 is, setting by setting: under setting [1], 1.15 nM; under setting [2], 196 nM.

(Values after patent publication US11413292B2, “Tricyclic heterocycle compounds useful as HIV integrase inhibitors” (Merck Sharp & Dohme Corp., priority 2018, dated 2022).)
